Measurements as given in ChEMBL document CHEMBL3272144, “Application of the Free-Wilson technique to structurally related series of homologues. Quantitative structure-activity relationship studies of narcotic analgetics” (1977).

Species: Mus musculus
Test: Analgesic activity in mouse by hot-plate method
Format: functional

Compound	log(1/C)
CN1CC[C@H]2CC1Cc1ccccc12 (mixture of isomers)	1.3
CC[C@@]12CCN(C)C(Cc3ccc(O)cc31)[C@]2(C)OC(C)=O (mixture of isomers)	2.78
CC(=O)Oc1ccc2c(c1)[C@@]1(C)CCN(C)C(C2)C1 (mixture of isomers)	1.98
CCC[C@@]12CCN(C)C(Cc3ccccc31)[C@@H]2C (mixture of isomers)	1.42
CN1CC[C@H]2CC1Cc1ccc(O)cc12 (stereo in doubt; 46)	1.72
CCCCC(=O)Oc1ccc2c(c1)[C@@]1(c3ccccc3)CCN(C)C(C2)[C@H]1C	2.78
C[C@@H]1C2CCN(CCc3ccccc3)C1Cc1ccc(O)cc12 (mixture of isomers)	3.21
CC(=O)O[C@@]12CCN(C)C(Cc3ccccc31)C2 (mixture of isomers)	1.64
CN1CC[C@]2(C)c3ccccc3CC1[C@@]2(C)O (mixture of isomers)	0.68
CCC(=O)Oc1ccc2c(c1)[C@@]1(C)CCN(C)C(C2)C1 (mixture of isomers)	1.98
CC[C@@]12CCN(C)C(Cc3ccc(O)cc31)[C@H]2O (mixture of isomers)	1.67
COc1ccc2c(c1)[C@@]1(C)CCN(C)C(C2)[C@H]1O (mixture of isomers)	1.14
COc1ccc2c(c1)[C@@]1(C)CCN(CCc3ccccc3)C(C2)[C@@H]1C	2.66
COc1ccc2c(c1)[C@@]1(C)CCN(C)C(C2)C1 (mixture of isomers)	1.64
CC[C@H]1C2Cc3ccc(O)cc3[C@@]1(CC)CCN2C (stereo in doubt; 30)	2.35
C[C@]1(O)C2Cc3ccc(O)cc3[C@@]1(C)CCN2CCc1ccccc1 (mixture of isomers)	2.05
C[C@H]1C2Cc3ccc(O)cc3[C@@]1(C)CCN2CCc1ccccc1 (stereo in doubt; 87)	2.05
C[C@@H]1C2Cc3ccc(O)cc3[C@@]1(c1ccccc1)CCN2C (stereo in doubt; 88)	1.99
C[C@@]12CCN(CCc3ccccc3)C(Cc3ccccc31)C2 (mixture of isomers)	1.26

Compound	log(1/C)
CCCCC[C@@]12CCN(C)C(Cc3ccc(O)cc31)C2 (mixture of isomers)	1.96
C[C@@H]1C2Cc3ccc(O)cc3[C@@]1(C)CCN2C (stereo in doubt; 92)	1.6
CC[C@H]1C2Cc3ccc(OC(=O)c4cccnc4)cc3[C@@]1(CC)CCN2C (mixture of isomers)	1.54
CC[C@@]12CCN(CCc3ccccc3)C(Cc3ccc(O)cc31)C2 (mixture of isomers)	3.66
C[C@H]1C2Cc3ccccc3[C@@]1(O)CCN2C (mixture of isomers)	0.75
CCC[C@@]12CCN(C)C(Cc3ccc(O)cc31)C2 (mixture of isomers)	2.43
CC[C@@]12CCN(C)C(Cc3ccc(O)cc31)[C@@]2(C)O (mixture of isomers)	2.61
CCC[C@@H]1C2Cc3ccc(O)cc3[C@@]1(CCC)CCN2C (mixture of isomers)	2.88
CC[C@@]12CCN(C)C(Cc3ccc(OC)cc31)[C@@H]2O (mixture of isomers)	0.99
CCCCCC[C@@]12CCN(C)C(Cc3ccc(O)cc31)[C@H]2CO (mixture of isomers)	1.53
CC(C)=CCN1CC[C@]2(C)c3cc(O)ccc3CC1[C@@H]2C	1.53
C[C@H]1C2Cc3ccccc3[C@@]1(C)CCN2CCC(=O)c1ccccc1 (mixture of isomers)	1.93
CN1CC[C@H]2CC1Cc1ccc(O)cc12 (stereo in doubt; 96)	1.22
c1ccc2c(c1)CC1C[C@@H]2CCN1 (mixture of isomers)	1.31
C[C@@]12CCN(CCc3ccccc3)C(Cc3ccc(O)cc31)[C@@H]2O (mixture of isomers)	2.99
CC[C@@]12CCN(C)C(Cc3ccc(OC(C)=O)cc31)[C@@H]2OC(C)=O (mixture of isomers)	2.53
CC[C@H]1C2Cc3ccc(OC(C)=O)cc3[C@@]1(CC)CCN2C (mixture of isomers)	2.36
CC(C)=CCN1CC[C@]2(C)c3cc(O)ccc3CC1[C@H]2C	1.7
CCC[C@@]12CCN(C)C(Cc3ccc(O)cc31)[C@@H]2C (stereo in doubt; 25)	2.57

Compound	log(1/C)
CC[C@@H]1C2Cc3ccc(O)cc3[C@@]1(CC)CCN2C (stereo in doubt; 95)	1.31
CC[C@@H]1C2Cc3ccc(O)cc3[C@@]1(CC)CCN2C (stereo in doubt; 6)	3.51
C[C@H]1C2Cc3ccc(F)cc3[C@@]1(C)CCN2C (mixture of isomers)	1.08
CC[C@@H]1C2Cc3ccccc3[C@@]1(CC)CCN2C (mixture of isomers)	1.8
C[C@H]1C2Cc3ccc(O)cc3[C@@]1(C)CCN2CCc1ccccc1 (stereo in doubt; 2)	3.83
CC[C@@]12CCN(C)C(Cc3ccc(O)cc31)[C@H]2C	3.92
CC[C@@]12CCN(C)C(Cc3ccc(OC)cc31)[C@@H]2OC(C)=O (mixture of isomers)	1.48
CC[C@H]1C2Cc3ccc(O)cc3[C@@]1(CC)CCN2CCc1ccccc1 (mixture of isomers)	2.61
CC[C@H]1C2Cc3ccc(OC)cc3[C@@]1(CC)CCN2C (stereo in doubt; 42)	1.81
C=CC#CCN1CC[C@]2(CC)c3cc(O)ccc3CC1[C@@H]2CC (stereo in doubt; 72)	3.7
CN1CC[C@]2(C)c3cc(O)ccc3CC1[C@]2(C)O (mixture of isomers)	1.89
COc1ccc2c(c1)[C@@]1(C)CCN(C)C(C2)[C@@]1(C)O	1.48
C[C@H]1C2Cc3ccccc3[C@@]1(C)CCN2C (mixture of isomers)	1.27
COc1ccc2c(c1)[C@@]1(C)CCN(C)C(C2)[C@]1(C)O (mixture of isomers)	1.65
C[C@H]1C2Cc3ccc(OC(=O)c4cccnc4)cc3[C@@]1(C)CCN2CCc1ccccc1	3.68
C[C@H]1C2Cc3ccc(OC(=O)c4cccnc4)cc3[C@@]1(C)CCN2CC1CC1 (mixture of isomers)	2.59
CC[C@@]12CCN(C)C(Cc3ccc(O)cc31)[C@@H]2C (mixture of isomers)	2.06
CN1CC[C@]2(C)c3ccccc3CC1[C@]2(C)O (mixture of isomers)	1.16
